Measurements reported in patent US10766857B2, “Compound having BLT inhibitory activity and composition, for preventing or treating inflammatory diseases, comprising same as active ingredient” (DONGGUK UNIVERSITY INDUSTRY-ACADEMIC COOPERATION FOUNDATION, priority 2015, dated 2020).

Key:
[1] = molecular target: T1, BLT2-expressing cells (CHO-BLT2 cells) (Homo sapiens, UniProt Q9NPC1); assay: MTT cell growth of LTB4-stimulated BLT2-expressing cells; format: cell-based; details: pre-treated at 10 μM, LTB4 300 nM
T1 construct: HA; expressed in transfected cells
T1 sequence (Q9NPC1 with tags, fused parts or gaps): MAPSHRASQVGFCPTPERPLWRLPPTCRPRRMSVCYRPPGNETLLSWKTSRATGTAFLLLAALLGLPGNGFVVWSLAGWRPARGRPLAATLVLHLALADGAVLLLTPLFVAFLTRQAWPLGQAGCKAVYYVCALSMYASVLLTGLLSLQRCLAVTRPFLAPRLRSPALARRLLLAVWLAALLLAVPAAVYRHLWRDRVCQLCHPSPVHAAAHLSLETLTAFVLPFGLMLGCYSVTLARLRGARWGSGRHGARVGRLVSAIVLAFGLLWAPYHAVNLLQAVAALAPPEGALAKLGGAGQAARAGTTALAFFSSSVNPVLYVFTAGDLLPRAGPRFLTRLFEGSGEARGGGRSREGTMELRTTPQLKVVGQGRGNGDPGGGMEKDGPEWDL
Description: Cell viability according to treatment of the compounds prepared in the examples were measured by a 3-(4,5-dimethylthiazol-2-yl)-2,5-diphenyltetrazolium bromide (MTT) method.
More specifically, 1×10^4 each of the BLT2-nonexpressing cells (CHO-pcDNA3.1 cells) and BLT2-expressing cells (CHO-BLT2 cells), which were prepared in Experimental Example 1, were dispensed in a […], and cultured for 24 hours. Afterward, the culture medium was removed, a serum-free RPMI medium was added, and after two hours, the cells were pre-treated with each of the compound prepared in one of the examples (10 μM), 10 μM DMSO (compound solvent) as a control, and 10 μM 1-[5-ethyl-2-hydroxy-4-[[6-methyl-6-(1H-tetrazol-5-yl)heptyl]oxy]phenyl]-ethanone (LY255283; Cayman) as a positive control for 1 hour. Subsequently, after treatment of LTB4 (300 nM), the cells were cultured for 24 hours. 20 μL of an MTT solution (5 mg/mL, Sigma-Aldrich) was added to each well, the cells were cultured in a humid CO2 incubator at 37° C. for 4 hours, a supernatant was removed, and 200 μL of DMSO was added to each well to dissolve insoluble violet formazan crystals. Absorbance was measured using a microplate reader (Molecular Devices, Sunnyvale, Calif.) at 550 nm, and the measurement was repeated three times.

[2] = system: cancer cells (MDA-MB-231); assay: Metastasis of breast cancer cells in nude mice; format: in vivo; details: MDA-MB-231 in nude mice, i.p.; LMT-696 and LY255283 2.5 mg/kg, U75302 0.25 mg/kg; 15 weeks
Description: An experiment for the metastasis of breast cancer cells according to the treatment of the compound of the present invention was approved by the Ethics Committee of Korea University, and all experimental animals used in this experiment were treated according to the approved guidelines of the Korea University Animal Care and Use Committee. Six-week-old female nude mice (Charles River, Wilmington, Mass.) were injected with cancer cells to confirm cancer cell metastasis. The breast cancer cells were pre-treated with the compound of the present invention (LMT-696, 10 μM), LY255283, U75302 and DMSO, and 24 hours later, harvested with trypsin-EDTA, resuspended in PBS, and then 2×10^6 of the breast cancer cells were intraperitoneally injected into mice anesthetized with zoletil (50 mg/kg). After five days, the compound of the present invention (LMT-696; 2.5 mg/kg), LY255283 (2.5 mg/kg), U75302 (0.25 mg/kg) and DMSO were injected intraperitoneally three times every five days. At 15 weeks after the injection of the breast cancer cells, the mice were dissected to observe the cancer cell metastasis.

[3] = system: severe asthma-induced mice; assay: OVA-induced asthma mice: AHR and IL-4; format: in vivo; details: pre-treated at 10 μM (so in the source)
From the text: Mast cells play a pivotal role in the initial reaction to asthma, and when an allergen enters the body from the outside through an airway, the mast cells are activated, thereby secreting various cytokines (interleukin-4 and interleukin-13). Due to the cytokines, the influx of inflammatory cells, the generation of mucus and the airway contraction occur. The inventors used 7-week-old (18 to 20 g) female BALB/c mice provided by Orient (Seoungnam, Korea) for the experiment to confirm the antiasthma effect, and then the asthma was induced in the mice. […] On the 24th day of the initial sensitization, airway hyperresponsiveness (AHR) was detected, and on the 25th day, the mice were dissected to observe asthma phenotypes, for example, inflammatory cytokine IL-4 expression and the influx of inflammatory cells (neutrophils). […] On the 23rd day of the initial sensitization, AHR was detected, and on the 24th day, the mice were dissected to observe a severe asthma phenotype, for example, the influx of the inflammatory cells (neutrophils). […] The AHR was analyzed using an enhanced pause as the indicator of the asthma phenomenon. Bronchoalveolar lavage fluid cell counts were quantified by counting cells under an optical microscope (magnification, 200×). In each analysis, 4 fields were subjected to counting, each sample was analyzed twice, and the analysis was repeated three times.

Question: Which results are given for `CCCCC(=O)N(CC#Cc1ccc(C(=O)N2CCN(C(C)C)CC2)cc1)c1ccccc1` [LMT-696, N-(3-(4-(4-isopropylpiperazine-1-carbonyl)phenyl)prop-2-ynyl)-N-phenylpentaneamide]?
Answer: cell growth compared with the control DMSO [1]: 56.6%; metastasis of the cancer cells inhibited as compared with the control [2]: 40%; AHR reduced ([3]; airway constrictor 50 mg/ml): 70%; generation of IL-4 reduced ([3]; cells isolated from the abdominal cavity of the mice): 70%
